In test [1] the target is T1, 5-hydroxytryptamine receptor 1A (Homo sapiens) (UniProt P08908).
T1 sequence (whole entry): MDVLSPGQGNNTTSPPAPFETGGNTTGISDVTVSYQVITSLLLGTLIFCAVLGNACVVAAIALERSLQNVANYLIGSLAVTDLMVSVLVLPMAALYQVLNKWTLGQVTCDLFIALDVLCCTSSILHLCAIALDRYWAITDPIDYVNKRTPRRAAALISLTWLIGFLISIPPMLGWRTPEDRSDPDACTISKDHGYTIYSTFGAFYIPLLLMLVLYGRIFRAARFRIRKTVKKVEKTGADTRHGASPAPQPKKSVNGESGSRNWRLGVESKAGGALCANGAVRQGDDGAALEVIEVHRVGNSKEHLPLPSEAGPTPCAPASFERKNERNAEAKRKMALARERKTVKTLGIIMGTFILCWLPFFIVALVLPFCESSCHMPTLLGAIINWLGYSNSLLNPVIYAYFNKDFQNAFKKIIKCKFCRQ
The experiment in a line: Agonist activity at recombinant human 5HT1A receptor expressed in human HeLa cell membranes assessed as stimulation of [35S]GTPgammaS binding preincubated for 20 mins followed by [35S]GTPgammaS addition measured after 30 mins by liquid scintillation counting method. It counts as functional. (Binding of GTPγS marks nucleotide exchange on a G protein.)

Test [2] relates to Mus musculus. The experiment in a line: Anxiolytic activity in ip dosed CD-1 mouse assessed as increase in latency time to enter dark area administered 30 mins prior to test by light/dark exploration test. Type of test: functional, organism-based.
Test [3] can be described thus: Selectivity index, ratio of Ki for recombinant human D4 receptor expressed in HEK293 cell membranes to Ki for recombinant human 5HT1A receptor expressed in human HeLa cell membranes.
Test [4] is described as follows: Selectivity index, ratio of Ki for recombinant human alpha-1b adrenergic receptor expressed in CHO cell membranes to Ki for recombinant human 5HT1A receptor expressed in human HeLa cell membranes.
A short description of test [5]: Selectivity index, ratio of Ki for recombinant human D3 receptor expressed in HEK293 cell membranes to Ki for recombinant human 5HT1A receptor expressed in human HeLa cell membranes.
Test [6] addresses T2, Alpha-1D adrenergic receptor (Homo sapiens, UniProt P25100).
T2 sequence (P25100 whole entry): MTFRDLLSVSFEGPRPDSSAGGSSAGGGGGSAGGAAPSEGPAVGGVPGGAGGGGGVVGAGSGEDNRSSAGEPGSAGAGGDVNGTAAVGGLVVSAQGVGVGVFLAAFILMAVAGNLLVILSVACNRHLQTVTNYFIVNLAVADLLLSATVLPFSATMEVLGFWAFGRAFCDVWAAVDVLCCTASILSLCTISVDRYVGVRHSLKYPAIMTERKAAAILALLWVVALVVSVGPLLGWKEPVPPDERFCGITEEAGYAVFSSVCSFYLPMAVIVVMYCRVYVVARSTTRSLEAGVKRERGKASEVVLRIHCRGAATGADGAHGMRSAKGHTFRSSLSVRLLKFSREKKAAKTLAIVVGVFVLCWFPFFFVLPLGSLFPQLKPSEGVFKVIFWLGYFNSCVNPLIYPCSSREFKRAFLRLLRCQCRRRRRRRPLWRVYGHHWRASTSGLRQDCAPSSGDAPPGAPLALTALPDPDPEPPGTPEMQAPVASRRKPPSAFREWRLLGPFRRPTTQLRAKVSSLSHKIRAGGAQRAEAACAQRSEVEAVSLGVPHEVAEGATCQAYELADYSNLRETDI
Briefly: Displacement of [3H]prazosin from recombinant human alpha-1d adrenergic receptor expressed in CHO cell membranes after 30 mins by liquid scintillation counting method. Background: Displacement assays read how much labelled ligand stays bound in the presence of the test substance.

Test [7] has as its system Mus musculus. The experiment in a line: Anxiolytic activity in ip dosed CD-1 mouse assessed as increase in time spent in light area administered 30 mins prior to test by light/dark exploration test. Type of test: functional, organism-based.
Test [8] concerns Mus musculus. Briefly: Anxiolytic activity in CD-1 mouse assessed as increase in time spent in light area at 30 mg/kg, ip administered 30 mins prior to test in presence of 5HT1A receptor antagonist WAY100135 by light/dark exploration test. It counts as functional, organism-based.
A short description of test [9]: Selectivity index, ratio of Ki for recombinant human alpha-1d adrenergic receptor expressed in CHO cell membranes to Ki for recombinant human 5HT1A receptor expressed in human HeLa cell membranes.
Another test has as its target D(3) dopamine receptor (Homo sapiens, UniProt P35462). Briefly: Displacement of [3H]N-methylspiperone from recombinant human D3 receptor expressed in HEK293 cell membranes after 1 hr by liquid scintillation counting method.
Test [10] has as its target T3, Alpha-1B adrenergic receptor (Homo sapiens, UniProt P35368).
T3 sequence (P35368 whole entry): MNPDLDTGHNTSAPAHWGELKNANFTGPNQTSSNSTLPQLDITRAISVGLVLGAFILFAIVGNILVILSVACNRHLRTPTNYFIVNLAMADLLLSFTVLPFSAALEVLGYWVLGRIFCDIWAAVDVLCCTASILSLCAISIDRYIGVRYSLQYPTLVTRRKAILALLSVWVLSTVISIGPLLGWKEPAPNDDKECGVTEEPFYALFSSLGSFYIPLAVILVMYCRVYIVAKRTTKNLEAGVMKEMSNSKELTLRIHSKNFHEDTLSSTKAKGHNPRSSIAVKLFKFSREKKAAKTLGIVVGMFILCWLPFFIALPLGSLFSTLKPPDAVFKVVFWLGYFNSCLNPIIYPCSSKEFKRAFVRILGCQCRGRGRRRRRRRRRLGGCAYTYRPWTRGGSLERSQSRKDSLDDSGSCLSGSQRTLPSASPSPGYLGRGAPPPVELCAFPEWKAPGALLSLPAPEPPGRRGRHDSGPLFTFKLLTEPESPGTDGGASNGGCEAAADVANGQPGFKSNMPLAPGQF
Briefly: Displacement of [3H]prazosin from recombinant human alpha-1b adrenergic receptor expressed in CHO cell membranes after 30 mins by liquid scintillation counting method.

Test [11] has as its target T4, 5-hydroxytryptamine receptor 1A (Homo sapiens, UniProt P08908).
T4 sequence (P08908 whole entry): T1 sequence (whole entry)
Briefly: Displacement of [3H]8-OH-DPAT from recombinant human 5HT1A receptor expressed in human HeLa cell membranes after 30 mins by liquid scintillation counting method.

Test [12] is described as follows: Selectivity index, ratio of Ki for recombinant human alpha-1a adrenergic receptor expressed in CHO cell membranes to Ki for recombinant human 5HT1A receptor expressed in human HeLa cell membranes.
Test [13] concerns the target T1, 5-hydroxytryptamine receptor 1A (Homo sapiens). Briefly: Agonist activity at recombinant human 5HT1A receptor expressed in human HeLa cell membranes assessed as stimulation of [35S]GTPgammaS binding up to 10 uM preincubated for 20 mins followed by [35S]GTPgammaS addition measured after 30 mins by liquid scintillation counting method relative to 5-HT. Type of test: functional.

Usually Ki stands for a measure of affinity in units of concentration, obtained from inhibition or displacement. The Emax is the size of the effect at its maximum, as opposed to the concentration needed.

The structures appear in SMILES notation. Calls of active or inactive are those of the source. The calls are words filed in the database; no cut-off is given here.

Sequence of D(3) dopamine receptor (P35462 whole entry): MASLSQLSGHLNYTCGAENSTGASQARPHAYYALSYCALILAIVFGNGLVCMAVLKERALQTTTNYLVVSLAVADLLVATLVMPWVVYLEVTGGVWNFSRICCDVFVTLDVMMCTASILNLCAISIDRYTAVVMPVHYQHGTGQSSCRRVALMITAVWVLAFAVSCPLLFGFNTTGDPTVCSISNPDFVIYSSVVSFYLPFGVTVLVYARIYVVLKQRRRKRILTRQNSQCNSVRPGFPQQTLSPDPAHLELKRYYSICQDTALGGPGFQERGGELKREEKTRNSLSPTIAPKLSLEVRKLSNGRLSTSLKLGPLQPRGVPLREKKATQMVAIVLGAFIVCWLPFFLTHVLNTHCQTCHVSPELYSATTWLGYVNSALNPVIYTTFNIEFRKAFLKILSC

With `COCOc1ccccc1OCCNCC1COCC(c2ccccc2)(c2ccccc2)O1` (racemic), in test [1], the pD2 was 9.41. In addition, the Activity result with Mus musculus [2] and in the test with Mus musculus [7] was “Dose-dependent effect” each time. The “Ratio Ki” value is 81 in [3]; 457 in test [4]; 105 in test [5]; 126 in test [9]; 447 in [12]. For the same molecule, the Ki is 79.4 nM in test [6], 66.1 nM at D(3) dopamine receptor, 288 nM in [10] and 0.631 nM in [11]. In addition, the outcome in the test with Mus musculus [8] was inactive. Moreover, in test [13], the Emax stood at 62.8%.

(Values after ChEMBL document CHEMBL4041469, “The replacement of the 2-methoxy substituent of N-((6,6-diphenyl-1,4-dioxan-2-yl)methyl)-2-(2-methoxyphenoxy)ethan-1-amine improves the selectivity for 5-HT1A receptor over α1-adrenoceptor and D2-like receptor subtypes” (Eur J Med Chem, 2017).)
